Experimental findings from publication PMC7595621, “Quorum sensing N-Acyl homoserine lactones are a new class of anti-schistosomal” (PLoS Neglected Tropical Diseases, 2020) are described below.

Values after ≈ are worked out from the molar mass of the structure shown. Read-outs that look alike come from different tables or passages of the source.

Series [1] can be described thus: Cell cytotoxicity assay (MTT). The settings on record: human, HepG2 cells, MTT, 95% confidence interval, called EC50. The format is cell-based, human.
Procedure: (§3) The cytotoxicity of each compound was assessed on human HepG2 cells as described previously [17]. Briefly, 2 x 10^4 cells/well were seeded in black walled 96-well microtiter plates (Fisher Scientific, Loughborough, UK) and incubated for 24 hr at 37°C in a humidified atmosphere containing 5% CO2. […] Following a further incubation for 24 hr, the MTT assay was performed as previously described [17, 27]. Dose response curves were obtained by non-linear regression, after log transformation of concentrations and data normalization using GraphPad Prism 7.02.
For series [2], the system named is adult S. mansoni worm pairs. In words: Screening of adult S. mansoni blood flukes (7-week worms), WHO-TDR motility scoring. The format is cell-based, Schistosoma mansoni. The note with it: for Selectivity index, adult worm female: HepG2 CC50 / adult female EC50; for Selectivity index, adult worm male: HepG2 CC50 / adult male EC50; for EC50: Schistosoma mansoni. The protocol:
(§1) Adult S. mansoni parasites were recovered by hepatic portal vein perfusion from TO outbred mice (HsdOla:TO, Tuck-Ordinary, Envigo, UK) that were percutaneously infected seven weeks earlier with 180 cercariae. Three adult worm pairs per well, in duplicate, were transferred into 48 well plates (Fisher Scientific, Loughborough, UK) and cultured at 37 °C in an atmosphere containing 5% CO2 in DMEM (Gibco, Paisley, UK) containing 10% v/v HEPES, 10% v/v Foetal Bovine Serum (FBS), 0.7% v/v 200 mM L-Glutamine and 1X v/v penicillin-streptomycin. Worms were dosed with test compounds at 20 μM, 10 μM, 5 μM, 2.5 μM, 1.25 μM and 0.625 μM (in 0.2% DMSO) for 72 hr. Adult worms were scored manually at 72 hr using the WHO-TDR metric scoring system as described previously. Dose response curves and EC50 values were obtained by non-linear regression, after log transformation of concentrations and data normalization using GraphPad Prism 7.02. At 72 hr, the medium from each well was also collected, centrifuged at 350 x g for 2 min. Afterwards, the supernatant was removed, and the remaining egg pellet re-suspended in 10% v/v formalin. Eggs that were oval and contained a fully formed lateral spine were subsequently counted.
(§2) Fig 3 Adult schistosome motility and egg production are differentially affected by the nine N-acyl homoserine lactones. […] Parasite motility was evaluated for each sex and scored using the WHO-TDR scoring system (0 = Dead parasite, 4 = Normal/Healthy movement). B) Culture media were collected from some adult co-cultures at 72 hrs and eggs present in the media were counted. p values are indicated as follows: * <0.05, ** <0.01, *** <0.001.
Initially, these screens were conducted at 20 μM; any compounds that scored a 1 or 0 for motility at this primary concentration were further titrated until no further effect was observed. […] Similar to the schistosomula assays, the differences observed in adult parasite motility when treated with the (R)- and (S)- enantiomers of Compound 1 were striking. […] Estimated EC50s for male and female parasites for these two enantiomers were determined (Table 2), with Compound 5 ((R)- enantiomer) having greater activity than Compound 6 ((S)- enantiomer).

Another series concerns S. aureus ATCC 29213. In words: Broth microdilution MIC and IC50 determination, S. aureus. It is filed as cell-based, Staphylococcus aureus. The note with it: for MIC: ATCC29213, 24 h. The protocol:
S. aureus ATCC 29213 and E. coli ATCC 25922 were cultured in Luria-Bertani (LB) medium at 37°C with aeration at 200 rpm for 24 hr, with all procedures performed in a biosafety level 2 (BSL2) cabinet. Stationary phase cultures were then used for minimum inhibitory concentration (MIC) determination using the broth microdilution method, in fresh LB medium, in a 96-well plate. All compounds were tested in triplicate using an initial bacterial concentration of 5.0 × 10^5 colony forming units (CFU)/mL at a final concentration of 125 mg/L (5% and 2.5% v/v methanol). Compounds with no visible growth at 125 mg/L were further evaluated with progressing dilutions. […] Dilutions were repeated in three independent experiments where the optical density (OD600) was measured in a Hidex plate spectrophotometer and absorbance data used for the calculation of an IC50 value. The IC50 value was obtained from a dose response titration (125–0.09 mg/L). Dose response curves were obtained by non-linear regression, after log transformation of concentrations and data normalization using GraphPad Prism 7.02.
As Compound 1 was structurally similar to N-acyl homoserine lactones, a compound class involved in bacterial quorum sensing, we decided to assess its antimicrobial activity and determine if enantiomer separation or lactone ring substitution would change this activity.
(In general: Dilution methods test growth across graded concentrations, often in twofold steps.)

In series [3] the test system is adult S. mansoni worm pairs (egg production). Briefly: In vitro egg production of adult S. mansoni worm pairs. It is filed as cell-based, Schistosoma mansoni. The note with it: 72 hr, compared to DMSO. The protocol:
as §1, §2
As morbidity associated with schistosomiasis is caused by egg-induced granuloma formation in tissues and the subsequent development of fibrotic lesions around these granulomas, compound-mediated modulation of in vitro egg production (as a surrogate for the in vivo pathology initiator) was next assessed (Fig 3B). […] In comparison to the negative control DMSO, in which egg counts ranged from 300–594 (Average—408), all N-Acyl homoserine lactones affected fecundity.

In a further series the test system is HepG2 cells. In words: Cell cytotoxicity assay (MTT). The format is cell-based, human. The note with it: 24 hr.
[4] abbreviates: 7-week worms, 72 hr, motility, 95% confidence interval, read-out: ADULT WORM EC50 Female.
Setting [5] is: 7-week worms, 72 hr, motility, 95% confidence interval, read-out: ADULT WORM EC50 Male.
Where [6] appears, read: Staphylococcus aureus, 24 hr, no visible growth.
[7] abbreviates: Staphylococcus aureus, value in square brackets, 24 hr.

Procedure for HepG2 cells: as §3

For orientation: CC50 means the concentration giving 50% cytotoxicity. Usually EC50 stands for the concentration at which the effect is half-maximal. One may read the MIC as the lowest concentration that inhibits growth of the organism. Lower therefore signals a more susceptible organism. In series [1], `O=C(CBr)NC1CCOC1=O` (stereo not shown) [Compound 1, 2-bromo-N-(2-oxotetrahydrofuran-3-yl)acetamide] yielded a half-maximal cytotoxic concentration (CC50) at 24 h of 43.5 µM. The “Selectivity index, adult worm female” value in series [2] was found to be 5.2. The “Selectivity index, adult worm male” value in series [2] amounted to 5.3. The concentration for a half-maximal effect (EC50) in series [2] (setting [4]) was 8.3 µM; in series [2] (setting [5]), 8.2 µM. For the same compound, the MIC in the series on S. aureus ATCC 29213 (setting [6]) was found to be 125 µg/mL; in the series with S. aureus ATCC 29213 (setting [7]), 563 µM. Further, the “egg laying significantly reduced down to concentration” value in series [3] worked out at 10 µM.
Usually IC50 stands for the concentration that gives 50% inhibition. Consider `O=C(CBr)NC1CCSC1=O` (stereo not shown) [Compound 3, 2-bromo-N-(2-oxotetrahydrothiophen-3-yl)acetamide], for which, in the series on HepG2 cells, the “fold increase in HepG2 cytotoxicity in comparison to compound 1” value amounted to 2.3 fold. In addition, half-maximal cytotoxicity in series [1] (CC50 at 24 h) was put at 18.7 µM. Further, the “significant reduction in adult worm motility observed down to” value in series [2] (72 hr) was 5 µM. The “Selectivity index, adult worm female” value in series [2] came out at 4.8. Besides, in series [2], the “Selectivity index, adult worm male” value was found to be 4.5. Also, the EC50 came out at 3.9 µM in series [2] (setting [4]); 4.2 µM in series [2] (setting [5]); 4.8 µM in series [2] (sex not stated (abstract), read-out: adult worms EC50). Further, in the series with S. aureus ATCC 29213 (24 hr, no visible growth), the “S. aureus MIC” value was 31.3 µg/mL. Also, the MIC in the series with S. aureus ATCC 29213 (setting [6]) was 31.2 µg/mL; in the series with S. aureus ATCC 29213 (setting [7]), 131 µM. For the same compound, the IC50 with S. aureus ATCC 29213 (Staphylococcus aureus, ATCC29213, Table 3, OD600, three independent experiments, 95% confidence interval in parentheses) was 25.9 µg/mL (≈ 109 µM). The “effect on egg production (fecundity)” value in series [3] is reported as “still affected at 1.25 μM, this was not statistically significant”. In addition, in series [3], the “egg laying significantly reduced down to concentration” value worked out at 2.5 µM.
